Assays:
Format in all cases: in vivo
[1] = test system: HORVS = barley (Hordeum vulare); experiment: Postemergence herbicidal activity in cereal crops, barley; details: post-emergence, 480 h, post-emergent, barley (crop), after 20-22 days; for pest or weed control at 70 g/ha: 70 g ai/ha; for pest or weed control at 35 g/ha: 35 g ai/ha; for pest or weed control at 17.5 g/ha: 17.5 g ai/ha
Method: (§1) Seeds of the desired test plant species were planted in Sun Gro MetroMix® 306 planting mixture, which typically has a pH of 6.0 to 6.8 and an organic matter content of about 30 percent, in plastic pots with a surface area of 103.2 square centimeters. When required to ensure good germination and healthy plants, a fungicide treatment and/or other chemical or physical treatment was applied. The plants were grown for 7-36 days in a greenhouse with an approximate 14 hour photoperiod which was maintained at about 18° C. during the day and 17° C. during the night. Nutrients and water were added on a regular basis and supplemental lighting was provided with overhead metal halide 1000-Watt lamps as necessary. The plants were employed for testing when they reached the second or third true leaf stage.
(§2) A weighed amount, determined by the highest rate to be tested, of each test compound was placed in a 25 mL glass vial and was dissolved in 8 mL of a 97:3 v/v mixture of acetone and DMSO to obtain concentrated stock solutions. […] The concentrated stock solutions obtained were diluted with 16 mL of an aqueous mixture containing acetone, water, isopropyl alcohol, DMSO, Agri-dex crop oil concentrate, and Triton X-77 surfactant in a 64.7:26.0:6.7:2.0:0.7:0.01 v/v ratio to obtain spray solutions containing the highest application rates. Additional application rates were obtained by serial dilution of 12 mL of the high rate solution into a solution containing 4 mL of 97:3 v/v mixture of acetone and DMSO and 8 mL of an aqueous mixture containing acetone, water, isopropyl alcohol, DMSO, Agri-dex crop oil concentrate, and Triton X-77 surfactant in a 48.5:39.0:10.0:1.5:1.0:0.02 v/v ratio to obtain ½×, ¼×, ⅛× and 1/16× rates of the high rate. Compound requirements are based upon a 12 mL application volume at a rate of 187 L/ha. Formulated compounds were applied to the plant material with an overhead Mandel track sprayer equipped with a 8002E nozzles calibrated to deliver 187 L/ha over an application area of 0.503 square meters at a spray height of 18 inches (43 cm) above average plant canopy height. Control plants were sprayed in the same manner with the blank.
(§3) The treated plants and control plants were placed in a greenhouse as described above and watered by sub-irrigation to prevent wash-off of the test compounds. After 20-22 days, the condition of the test plants as compared with that of the untreated plants was determined visually and scored on a scale of 0 to 100 percent where 0 corresponds to no injury and 100 corresponds to complete kill.

[2] = test system: ORYSA = rice (Orysa sativa var. Japonica); experiment: Herbicidal activity in transplanted paddy rice, rice; details: Oryza sativa, 480 h, water-injected paddy, rice (crop), after 20-22 days; for pest or weed control at 140 g/ha: 140 g ai/ha; for pest or weed control at 70 g/ha: 70 g ai/ha; for pest or weed control at 17.5 g/ha: 17.5 g ai/ha; for pest or weed control at 35 g/ha: 35 g ai/ha
Method: (§4) Weed seeds or nutlets of the desired test plant species were planted in puddled soil (mud) prepared by mixing a non-sterilized mineral soil (28 percent silt, 18 percent clay, and 54 percent sand, with a pH of about 7.3 to 7.8 and an organic matter content of about 1.0 percent) and water at a ratio of 100 kg of soil to 19 L of water. The prepared mud was dispensed in 250 mL aliquots into 480 mL non-perforated plastic pots with a surface area of 91.6 square centimeters leaving a headspace of 3 centimeters in each pot. Rice seeds were planted in Sun Gro MetroMix® 306 planting mixture, which typically has a pH of 6.0 to 6.8 and an organic matter content of about 30 percent, in plastic plug trays. Seedlings at the second or third leaf stage of growth were transplanted into 650 mL of mud contained in 960 mL non-perforated plastic pots with a surface area of 91.6 square centimeters 4 days prior to herbicide application. The paddy was created by filling the 3 centimeter headspace of the pots with water. When required to ensure good germination and healthy plants, a fungicide treatment and/or other chemical or physical treatment was applied. The plants were grown for 4-14 days in a greenhouse with an approximate 14 hour photoperiod which was maintained at about 29° C. during the day and 26° C. during the night. Nutrients were added as Osmocote (17:6:10, N:P:K+minor nutrients) at 2 g (grams) per cup. Water was added on a regular basis to maintain the paddy flood, and supplemental lighting was provided with overhead metal halide 1000-Watt lamps as necessary. The plants were employed for testing when they reached the second or third true leaf stage. A weighed amount, determined by the highest rate to be tested, of each test compound was placed in a 120 mL glass vial and was dissolved in 20 mL of acetone to obtain concentrated stock solutions. […] The concentrated stock solutions obtained were diluted with 20 mL of an aqueous mixture containing 0.01% Tween 20 (v/v). Application rates of ½×, ¼×, ⅛× and 1/16× of the high rate were obtained by injecting an appropriate amount of the stock solution into the aqueous layer of the paddy. Control plants were treated in the same manner with the solvent blank. The treated plants and control plants were placed in a greenhouse as described above and water was added as needed to maintain a paddy flood. After 20-22 days, the condition of the test plants as compared with that of the untreated plants was determined visually and scored on a scale of 0 to 100 percent where 0 corresponds to no injury and 100 corresponds to complete kill.

[3] = test system: SCPJU = Scirpus juncoides; experiment: Herbicidal activity in transplanted paddy rice, Scirpus juncoides; details: Schoenoplectiella juncoides, 480 h, water-injected paddy, after 20-22 days; for pest or weed control at 140 g/ha: 140 g ai/ha; for pest or weed control at 70 g/ha: 70 g ai/ha; for pest or weed control at 17.5 g/ha: 17.5 g ai/ha; for pest or weed control at 35 g/ha: 35 g ai/ha
Method: as §4

LAMPU = Lamium purpureum = experiment: Postemergence herbicidal activity in cereal crops, Lamium purpureum; details: post-emergence, 480 h, post-emergent, after 20-22 days; for pest or weed control at 70 g/ha: 70 g ai/ha; for pest or weed control at 35 g/ha: 35 g ai/ha; for pest or weed control at 17.5 g/ha: 17.5 g ai/ha
Method: as §1, §2, §3

PAPRH = Papaver rhoeas = experiment: Postemergence herbicidal activity in cereal crops, Papaver rhoeas; details: post-emergence, 480 h, post-emergent, after 20-22 days; for pest or weed control at 70 g/ha: 70 g ai/ha; for pest or weed control at 35 g/ha: 35 g ai/ha; for pest or weed control at 17.5 g/ha: 17.5 g ai/ha
Method: as §1, §2, §3

[4] = test system: TRZAS = wheat (Triticum aestivum); experiment: Postemergence herbicidal activity in cereal crops, wheat; details: post-emergence, 480 h, post-emergent, wheat (crop), after 20-22 days; for pest or weed control at 70 g/ha: 70 g ai/ha; for pest or weed control at 35 g/ha: 35 g ai/ha; for pest or weed control at 17.5 g/ha: 17.5 g ai/ha
Method: as §1, §2, §3

Row | Compound | pest or weed control at 70 g/ha [1] [%] | pest or weed control at 70 g/ha (LAMPU = Lamium purpureum) [%] | pest or weed control at 70 g/ha (PAPRH = Papaver rhoeas) [%] | pest or weed control at 70 g/ha [4] [%] | pest or weed control at 35 g/ha [1] [%] | pest or weed control at 35 g/ha (LAMPU = Lamium purpureum) [%] | pest or weed control at 35 g/ha (PAPRH = Papaver rhoeas) [%] | pest or weed control at 35 g/ha [4] [%] | pest or weed control at 17.5 g/ha [2] [%] | pest or weed control at 17.5 g/ha [1] [%] | pest or weed control at 17.5 g/ha (LAMPU = Lamium purpureum) [%] | pest or weed control at 17.5 g/ha (PAPRH = Papaver rhoeas) [%] | pest or weed control at 17.5 g/ha [4] [%] | also measured
1 | COC(=O)c1nc(-c2ccc(Cl)c(OCC(F)F)c2F)nc(N)c1Cl [Compound 10, 6-Amino-5-chloro-2-[4-chloro-3-(2,2-difluoroethoxy)-2-fluorophenyl]-pyrimidine-4-carboxylic acid methyl ester] | 0 | 85 | 95 | 5 |  |  |  |  |  |  |  |  |  | pest or weed control at 140 g/ha [2]: 0%; pest or weed control at 140 g/ha [3]: 40%
2 | COC(=O)c1nc(-c2c(F)cc(Cl)c(OC)c2F)nc(N)c1Cl [Compound 2, 6-amino-5-chloro-2-(4-chloro-2,6-difluoro-3-methoxy-phenyl)pyrimidine-4-carboxylic acid methyl ester] |  |  |  |  | 0 | 95 | 100 | 0 |  |  |  |  |  | pest or weed control at 70 g/ha [2]: 0%; pest or weed control at 70 g/ha [3]: 20%
3 | COC(=O)c1nc(-c2ccc(Cl)c(OC)c2Cl)nc(N)c1Cl [Compound 6, 6-Amino-5-chloro-2-(2,4-dichloro-3-methoxyphenyl)pyrimidine-4-carboxylic acid methyl ester] | 0 | 99 | 99 | 10 |  |  |  |  | 0 |  |  |  |  | 
4 | CCOc1c(Cl)ccc(-c2nc(N)c(Cl)c(C(=O)OC)n2)c1F [Compound 1, 6-amino-5-chloro-2-(4-chloro-3-ethoxy-2-fluorophenyl)-pyrimidine-4-carboxylic acid methyl ester] |  |  |  |  | 0 | 85 | 100 | 0 | 5 |  |  |  |  | pest or weed control at 17.5 g/ha [3]: 50%
5 | COC(=O)c1nc(-c2ccc(Cl)c(C(F)F)c2F)nc(N)c1Cl [Compound 7, 6-Amino-5-chloro-2-(4-chloro-3-difluoromethyl-2-fluorophenyl)pyrimidine-4-carboxylic acid methyl ester] |  |  |  |  |  |  |  |  |  | 0 | 90 | 95 | 15 | pest or weed control at 140 g/ha [2]: 0%; pest or weed control at 140 g/ha [3]: 90%
6 | COC(=O)c1nc(-c2ccc(Cl)c(OC)c2F)nc(N)c1Cl [Compound 3, 6-amino-5-chloro-2-(4-chloro-2-fluoro-3-methoxyphenyl)-pyrimidine-4-carboxylic acid methyl ester] |  |  |  |  |  |  |  |  | 0 | 0 | 99 | 100 | 0 | pest or weed control at 17.5 g/ha [3]: 80%
7 | COC(=O)c1nc(-c2ccc(Cl)c(OC)c2F)nc(N)c1Br [Compound 13, 6-amino-5-bromo-2-(4-chloro-2-fluoro-3-methoxyphenyl)-pyrimidine-4-carboxylic acid methyl ester] |  |  |  |  |  |  |  |  |  | 0 | 95 | 100 | 0 | pest or weed control at 70 g/ha [2]: 0%; pest or weed control at 70 g/ha [3]: 60%
8 | COC(=O)c1nc(-c2ccc(Cl)c(N(C)C)c2F)nc(N)c1Cl [Compound 8, 6-Amino-5-chloro-2-(4-chloro-3-dimethylamino-2-fluorophenyl)pyrimidine-4-carboxylic acid methyl ester] |  |  |  |  | 0 | 85 | 100 | 15 |  |  |  |  |  | pest or weed control at 35 g/ha [2]: 0%; pest or weed control at 35 g/ha [3]: 10%
9 | COC(=O)c1nc(-c2ccc3c(c2F)OCO3)nc(N)c1Cl [Compound 9, 6-Amino-5-chloro-2-(4-fluorobenzo[1,3]dioxol-5-yl)pyrimidine-4-carboxylic acid methyl ester] | 0 | 100 | 40 | 15 |  |  |  |  |  |  |  |  |  | pest or weed control at 35 g/ha [2]: 0%; pest or weed control at 35 g/ha [3]: 70%
